Reference: ChEMBL document CHEMBL4229543, “Squaramides as novel class I and IIB histone deacetylase inhibitors for topical treatment of cutaneous t-cell lymphoma” (Bioorg Med Chem Lett, 2018)

Assays:
[1] = Clearance in human hepatocytes assessed per million cells at 1 uM after 5 to 90 mins by LC-MS/MS analysis; format: ADME, cell-based, Hepatocyte; conditions: read-out: CLH
[2] = biological target: T1, Protein deacetylase HDAC6 (Homo sapiens, UniProt Q9UBN7); assay: Inhibition of human recombinant HDAC6 using fluorogenic HDAC substrate after 30 mins by fluorimetrc method
T1 sequence (Q9UBN7 whole entry): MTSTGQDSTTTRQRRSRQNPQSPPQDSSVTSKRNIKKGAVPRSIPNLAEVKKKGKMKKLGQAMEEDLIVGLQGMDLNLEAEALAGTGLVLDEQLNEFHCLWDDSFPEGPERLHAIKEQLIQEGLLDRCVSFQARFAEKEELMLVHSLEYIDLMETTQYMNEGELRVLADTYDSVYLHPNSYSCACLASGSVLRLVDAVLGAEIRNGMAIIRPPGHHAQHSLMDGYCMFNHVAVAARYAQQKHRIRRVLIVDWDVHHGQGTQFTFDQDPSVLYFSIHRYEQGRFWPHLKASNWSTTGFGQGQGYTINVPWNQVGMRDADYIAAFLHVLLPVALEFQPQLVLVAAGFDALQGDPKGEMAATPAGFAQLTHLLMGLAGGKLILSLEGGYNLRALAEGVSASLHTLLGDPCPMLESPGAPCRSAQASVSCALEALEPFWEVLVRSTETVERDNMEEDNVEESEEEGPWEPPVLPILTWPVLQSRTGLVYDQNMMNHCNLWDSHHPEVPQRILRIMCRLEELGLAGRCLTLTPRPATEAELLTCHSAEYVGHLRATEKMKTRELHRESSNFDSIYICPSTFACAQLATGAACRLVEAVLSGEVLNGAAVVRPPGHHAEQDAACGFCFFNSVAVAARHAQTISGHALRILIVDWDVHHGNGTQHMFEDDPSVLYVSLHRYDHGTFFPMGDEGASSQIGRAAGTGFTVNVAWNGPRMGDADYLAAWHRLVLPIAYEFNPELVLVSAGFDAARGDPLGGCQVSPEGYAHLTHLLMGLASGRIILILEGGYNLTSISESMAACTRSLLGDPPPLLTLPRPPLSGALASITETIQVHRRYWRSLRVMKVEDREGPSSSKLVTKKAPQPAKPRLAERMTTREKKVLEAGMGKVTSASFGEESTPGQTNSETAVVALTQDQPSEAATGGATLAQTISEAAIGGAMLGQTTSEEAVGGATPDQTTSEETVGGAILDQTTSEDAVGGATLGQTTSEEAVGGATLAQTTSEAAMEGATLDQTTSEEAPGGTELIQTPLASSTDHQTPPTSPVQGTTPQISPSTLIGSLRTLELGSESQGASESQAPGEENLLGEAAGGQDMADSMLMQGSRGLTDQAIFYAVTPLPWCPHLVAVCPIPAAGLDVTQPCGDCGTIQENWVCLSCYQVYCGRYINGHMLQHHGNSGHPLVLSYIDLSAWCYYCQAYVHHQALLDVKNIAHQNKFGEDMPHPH

Histone deacetylase 3 = Histone deacetylase 3 (Homo sapiens, UniProt O15379); assay: Inhibition of human recombinant HDAC3 using fluorogenic HDAC substrate after 10 mins by […] method
Sequence of Histone deacetylase 3 (O15379 whole entry): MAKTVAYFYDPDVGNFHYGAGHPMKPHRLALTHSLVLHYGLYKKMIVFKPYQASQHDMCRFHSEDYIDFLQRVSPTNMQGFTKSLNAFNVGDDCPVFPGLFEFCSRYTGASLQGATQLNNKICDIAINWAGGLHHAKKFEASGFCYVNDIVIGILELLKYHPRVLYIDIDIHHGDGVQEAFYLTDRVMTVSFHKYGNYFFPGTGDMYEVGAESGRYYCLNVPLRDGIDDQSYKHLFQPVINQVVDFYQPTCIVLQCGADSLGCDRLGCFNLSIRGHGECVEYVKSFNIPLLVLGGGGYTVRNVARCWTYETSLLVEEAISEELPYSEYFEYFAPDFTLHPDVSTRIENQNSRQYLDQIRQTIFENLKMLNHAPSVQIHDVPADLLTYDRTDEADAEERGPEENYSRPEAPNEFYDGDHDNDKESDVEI

Histone deacetylase 8 = biological target: T2, Histone deacetylase 8 (Homo sapiens, UniProt Q9BY41); assay: Inhibition of human recombinant HDAC8 using fluorogenic HDAC substrate after 15 mins by fluorimetrc method
T2 sequence (Q9BY41 whole entry): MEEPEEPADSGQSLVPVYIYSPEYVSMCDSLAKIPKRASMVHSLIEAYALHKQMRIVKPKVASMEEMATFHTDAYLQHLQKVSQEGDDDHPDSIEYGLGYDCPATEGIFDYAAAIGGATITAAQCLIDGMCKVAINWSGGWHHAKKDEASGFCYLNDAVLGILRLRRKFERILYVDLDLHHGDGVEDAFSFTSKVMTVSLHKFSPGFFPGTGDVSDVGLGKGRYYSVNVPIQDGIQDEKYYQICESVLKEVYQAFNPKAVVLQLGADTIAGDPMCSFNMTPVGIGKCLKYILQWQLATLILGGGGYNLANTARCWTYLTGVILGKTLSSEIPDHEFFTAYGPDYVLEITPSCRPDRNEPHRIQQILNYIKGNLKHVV

Histone deacetylase 9 = Histone deacetylase 9 (Homo sapiens, UniProt Q9UKV0); assay: Inhibition of human recombinant HDAC9 using fluorogenic HDAC substrate class 2a after 30 mins by fluorimetrc method
Sequence of Histone deacetylase 9 (Q9UKV0 whole entry): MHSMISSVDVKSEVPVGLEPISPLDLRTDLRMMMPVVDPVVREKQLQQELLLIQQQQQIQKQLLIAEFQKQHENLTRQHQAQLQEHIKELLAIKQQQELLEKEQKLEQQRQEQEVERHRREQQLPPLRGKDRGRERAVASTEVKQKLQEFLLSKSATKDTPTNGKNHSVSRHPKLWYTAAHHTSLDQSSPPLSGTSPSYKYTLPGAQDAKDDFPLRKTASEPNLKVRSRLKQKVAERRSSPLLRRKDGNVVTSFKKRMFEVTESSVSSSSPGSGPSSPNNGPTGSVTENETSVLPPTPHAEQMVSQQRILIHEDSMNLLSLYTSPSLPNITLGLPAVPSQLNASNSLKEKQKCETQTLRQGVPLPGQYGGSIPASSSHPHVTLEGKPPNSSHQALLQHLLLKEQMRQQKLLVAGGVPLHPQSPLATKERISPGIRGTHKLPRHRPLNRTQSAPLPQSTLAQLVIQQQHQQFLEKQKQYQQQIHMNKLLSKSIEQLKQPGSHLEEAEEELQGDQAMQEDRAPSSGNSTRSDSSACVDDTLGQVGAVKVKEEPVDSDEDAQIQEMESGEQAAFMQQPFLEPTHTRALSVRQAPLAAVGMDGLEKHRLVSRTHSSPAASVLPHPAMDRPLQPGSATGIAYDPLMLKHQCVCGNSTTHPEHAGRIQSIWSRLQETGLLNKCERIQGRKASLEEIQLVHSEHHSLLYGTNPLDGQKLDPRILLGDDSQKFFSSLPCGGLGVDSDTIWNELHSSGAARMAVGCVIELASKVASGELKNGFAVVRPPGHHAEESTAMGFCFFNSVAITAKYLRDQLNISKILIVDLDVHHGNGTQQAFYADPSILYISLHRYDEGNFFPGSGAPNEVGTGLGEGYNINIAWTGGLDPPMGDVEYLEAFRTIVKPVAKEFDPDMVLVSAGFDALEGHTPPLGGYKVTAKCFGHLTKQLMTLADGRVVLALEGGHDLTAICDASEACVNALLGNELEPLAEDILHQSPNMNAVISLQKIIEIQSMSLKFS

| hepatocyte CLint at 1 µM [1] [µL/min/1e6 cells] | Ki [2] [nM] | Ki (Histone deacetylase 3) [nM] | Ki (Histone deacetylase 8) [nM] | Ki (Histone deacetylase 9) [µM] | SMILES |
| --- | --- | --- | --- | --- | --- |
| < 4.7 | 23 | 0.8 | 100 | > 10 | COc1ccc(Nc2c(NCCCCCC(=O)NO)c(=O)c2=O)cc1 |
| 29 | 130 | 12 | 110 | > 10 | CC(C)(CCCCC(=O)NO)Nc1c(Nc2ccc(C(F)(F)F)cc2)c(=O)c1=O |
| < 5 | 130 | 58 | 320 | > 10 | CC(Nc1c(NCCCCCC(=O)NO)c(=O)c1=O)C12CC3CC(CC(C3)C1)C2 (stereo not given) |
